The source made the active and inactive calls. The rule behind the calls is not given here.
Columns and labels:
[1] = Upregulation of BDNF expression in human SH-SY5Y cells at 5 nM incubated for 2 hrs by ELISA; format: functional
SH-SY5Y [2] = test: Cytotoxicity against human SH-SY5Y cells assessed as reduction in cell viability at 5 nM measured after 48 hrs by MTT assay; format: toxicity, cell-based; conditions: 0.005 µM
SH-SY5Y [3] = test: Neuroprotective activity against corticosterone-induced cytotoxicity in human SH-SY5Y cells assessed as BDNF concentration at 5 nM preincubated with compound for 2 hrs followed by corticosterone addition and measured 2 hrs after replacement with fresh media by ELISA (reference value: 5 pg/ml); format: functional
SH-SY5Y [4] = test: Neuroprotective activity against corticosterone-induced cytotoxicity in human SH-SY5Y cells assessed as rescue of cell viability at 5 nM preincubated with compound for 24 hrs followed by corticosterone stimulation and measured after 48 hrs by MTT assay (reference value: 41%); format: functional; conditions: time 72 hrs
SH-SY5Y [5] = test: Neuroprotective activity against corticosterone-induced cytotoxicity in human SH-SY5Y cells assessed as rescue of cell viability at 10 uM preincubated with compound for 24 hrs followed by corticosterone stimulation and measured after 48 hrs by MTT assay relative to control; format: functional; conditions: time 72 hrs
SH-SY5Y [6] = test: Neuroprotective activity against corticosterone-induced cytotoxicity in human SH-SY5Y cells assessed as rescue of cell viability at 20 uM preincubated with compound for 24 hrs followed by corticosterone stimulation and measured after 48 hrs by MTT assay (reference value: 41%); format: functional; conditions: time 72 hrs
SH-SY5Y [7] = test: Neuroprotective activity against corticosterone-induced cytotoxicity in human SH-SY5Y cells assessed as rescue of cell viability at 10 uM preincubated with compound for 24 hrs followed by corticosterone stimulation and measured after 48 hrs by MTT assay (reference value: 41%); format: functional; conditions: time 72 hrs
SH-SY5Y [8] = test: Neuroprotective activity against corticosterone-induced cytotoxicity in human SH-SY5Y cells assessed as rescue of cell viability at 10 uM preincubated with compound for 96 hrs followed by corticosterone stimulation and measured after 48 hrs by MTT assay relative to control; format: functional; conditions: time 144 hrs
SH-SY5Y [9] = test: Neuroprotective activity against corticosterone-induced cytotoxicity in human SH-SY5Y cells assessed as rescue of cell viability at 10 uM preincubated with compound for 48 hrs followed by corticosterone stimulation and measured after 48 hrs by MTT assay relative to control; format: functional; conditions: time 96 hrs
SH-SY5Y [10] = test: Neuroprotective activity against corticosterone-induced cytotoxicity in human SH-SY5Y cells assessed as rescue of cell viability at 10 uM preincubated with compound for 72 hrs followed by corticosterone stimulation and measured after 48 hrs by MTT assay relative to control; format: functional; conditions: time 120 hrs
SH-SY5Y [11] = test: Neuroprotective activity against corticosterone-induced cytotoxicity in human SH-SY5Y cells assessed as […] at 10 uM preincubated with compound for 2 hrs followed by corticosterone addition and measured 2 hrs after replacement with fresh media by ELISA; format: functional
[12] = Upregulation of BDNF expression in human SH-SY5Y cells at 10 uM incubated for 2 hrs by ELISA; format: functional
SH-SY5Y [13] = test: Cytotoxicity against human SH-SY5Y cells assessed as reduction in cell viability at 1 to 50 uM measured after 48 hrs by MTT assay; format: toxicity, cell-based; conditions: dose 1-50 µM
[14] = Downregulation of corticosterone release in human SH-SY5Y cells at 10 uM incubated for 2 hrs by ELISA; format: functional
SH-SY5Y [15] = test: Neuroprotective activity against corticosterone-induced cytotoxicity in human SH-SY5Y cells assessed as BDNF concentration at 10 uM preincubated with compound for 2 hrs followed by corticosterone addition and measured 2 hrs after replacement with fresh media by ELISA (reference value: 5 pg/ml); format: functional
SH-SY5Y [16] = test: Cytotoxicity against human SH-SY5Y cells assessed as reduction in cell viability at 10 uM measured at 24 to 96 hrs by MTT assay; format: toxicity, cell-based; conditions: time 24-96 hrs
SH-SY5Y [17] = test: Neuroprotective activity against corticosterone-induced cytotoxicity in human SH-SY5Y cells assessed as rescue of cell viability at 5 uM preincubated with compound for 24 hrs followed by corticosterone stimulation and measured after 48 hrs by MTT assay (reference value: 41%); format: functional; conditions: time 72 hrs
SH-SY5Y [18] = test: Neuroprotective activity against corticosterone-induced cytotoxicity in human SH-SY5Y cells assessed as […] at 20 uM preincubated with compound for 2 hrs followed by corticosterone addition and measured 2 hrs after replacement with fresh media by ELISA; format: functional, cell-based
SH-SY5Y [19] = test: Inhibition of corticosterone release in human SH-SY5Y cells at 20 uM incubated for 2 hrs by ELISA; format: functional, cell-based
SH-SY5Y [20] = test: Cytotoxicity against human SH-SY5Y cells assessed as reduction in cell viability at 20 uM measured after 48 hrs by MTT assay; format: toxicity, cell-based
SH-SY5Y [21] = test: Upregulation of BDNF expression in human SH-SY5Y cells at 20 uM incubated for 2 hrs by ELISA; format: functional, cell-based
SH-SY5Y [22] = test: Neuroprotective activity against corticosterone-induced cytotoxicity in human SH-SY5Y cells assessed as rescue of BDNF expression at 20 uM preincubated with compound for 2 hrs followed by corticosterone addition and measured 2 hrs after replacement with fresh media by ELISA (reference value: 5 pg/ml); format: functional, cell-based
SH-SY5Y [23] = test: Neuroprotective activity against corticosterone-induced cytotoxicity in human SH-SY5Y cells assessed as rescue of cell viability at 20 uM preincubated with compound for 24 hrs followed by corticosterone stimulation and measured after 48 hrs by MTT assay; format: functional, cell-based; conditions: time 72.0 hrs

## O=c1cc(-c2ccccc2)oc2c(O)c(O)ccc12 [7,8-DIHYDROXYFLAVONE]
[1]
  Activity: 19 pg/mL
SH-SY5Y [2]
  Activity: Non-Toxic
SH-SY5Y [3]
  Activity: 21 pg/mL
SH-SY5Y [4]
  Activity: 86%

## CC1=C[C@@H]2c3c(O)cc(C)cc3OC(C)(C)[C@H]2CC1
SH-SY5Y [5]
  Activity: 92%
SH-SY5Y [6]
  Activity: 101%
SH-SY5Y [7]
  Activity: 99%
SH-SY5Y [8]
  Activity: 104%
SH-SY5Y [9]
  Activity: 98%
SH-SY5Y [10]
  Activity: 102%
SH-SY5Y [11]
  Activity: 5 pg/mL
[12]
  Activity: 29 pg/mL
SH-SY5Y [13]
  Activity: Non-Toxic
[14]
  Activity: 0.43 pg/mL
SH-SY5Y [15]
  Activity: 25 pg/mL
SH-SY5Y [16]
  Activity: Non-Toxic
SH-SY5Y [17]
  Activity: 83%

## C=C(C)[C@@H]1CCC(C)=C[C@H]1c1c(O)cc(CCCCC)cc1O [CANNABIDIOL]
SH-SY5Y [18]
  Activity: inactive
SH-SY5Y [19]
  inhibition: inactive
SH-SY5Y [20]
  Activity: Non-Toxic
SH-SY5Y [21]
  Activity: inactive
SH-SY5Y [22]
  Activity: inactive
SH-SY5Y [23]
  Activity: Active

## CC1=C[C@H]2c3c(O)cc(C)cc3OC(C)(C)[C@@H]2CC1
SH-SY5Y [5]
  Activity: 89%
SH-SY5Y [6]
  Activity: 97%
SH-SY5Y [7]
  Activity: 96%
SH-SY5Y [8]
  Activity: 99%
SH-SY5Y [9]
  Activity: 90%
SH-SY5Y [10]
  Activity: 95%
SH-SY5Y [11]
  Activity: 7 pg/mL
[12]
  Activity: 21 pg/mL
SH-SY5Y [13]
  Activity: Non-Toxic
[14]
  Activity: 0.22 pg/mL
SH-SY5Y [15]
  Activity: 18 pg/mL
SH-SY5Y [16]
  Activity: Non-Toxic
SH-SY5Y [17]
  Activity: 79%

Reference: ChEMBL document CHEMBL5357085, “Synthesis and Evaluation of Natural and Unnatural Tetrahydrocannabiorcol for Its Potential Use in Neuropathologies” (J Nat Prod, 2024)
